Laboratory results published in patent US9073853B2, “Cycloalkane carboxylic acid derivatives as CXCR3 receptor antagonists” (Sanofi, priority 2011, dated 2015).

Target: human CXCR3-A receptor (Homo sapiens (Human), UniProt P49682)
Experiment: 125I-CXCL10 competition radioligand binding assay
Conditions: displacement of 125I-CXCL10 from membranes of CHO cells expressing human recombinant CXCR3-A
Procedure: IC50 values were determined for the test compounds and used to explore the structure-activity relationships (SAR). […] This cell line was registered in Sanofi-Aventis cell line bank. […] Cell suspension was diluted with PBS and cells were collected with centrifugation at 230 g for 10 minutes at 10° C. with a Juan centrifuge. […] The supernatant was carefully collected and centrifuged at 100,000×g for 60 min at 4° with a Beckman Avanti J30 centrifuge. […] Protein concentration was determined with Bio-Rad protein assay (Cat No 500-0006). Membrane aliquots were stored at -80° C. […] The composition of the binding assay buffer was determined in a course of detailed optimization procedure. […] Binding reaction was initiated by adding of membranes (10-20 μg proteins, approximately 5×10^5 cell equivalents) to the reaction mixture. After 60 minutes of incubation at 25° C. the reaction was terminated by rapid filtration over GF/B glass fiber filters that were pre-soaked with 0.5% polyethyleneimine (Fluka Analytical, P3143) for 1 hour, using a Skatron cell harvester device. Filters then were washed with 8 ml of ice-cold wash buffer (modified binding buffer in which BSA was omitted and the concentration of NaCl was adjusted to 500 mM concentration). The radioactivity retained on the filters was measured by a Wizard 1470 Automatic Gamma counter. Test compounds were dissolved prior to the binding assay at a concentration of 10 mM in DMSO. Stock solutions were stored at -20° C. for not longer than 3 months. […] Before adding these solutions of test compound to the binding reaction mixture, an intermediate dilution procedure was applied, in which 30 μL of each solution sample was transferred into a dilution tube containing 970 μL of binding assay buffer. […] The IC50 values and Hill slopes for competition binding data were obtained using nonlinear four-parametric curve fitting method.

human CXCR3-A receptor, sequence (P49682 whole entry): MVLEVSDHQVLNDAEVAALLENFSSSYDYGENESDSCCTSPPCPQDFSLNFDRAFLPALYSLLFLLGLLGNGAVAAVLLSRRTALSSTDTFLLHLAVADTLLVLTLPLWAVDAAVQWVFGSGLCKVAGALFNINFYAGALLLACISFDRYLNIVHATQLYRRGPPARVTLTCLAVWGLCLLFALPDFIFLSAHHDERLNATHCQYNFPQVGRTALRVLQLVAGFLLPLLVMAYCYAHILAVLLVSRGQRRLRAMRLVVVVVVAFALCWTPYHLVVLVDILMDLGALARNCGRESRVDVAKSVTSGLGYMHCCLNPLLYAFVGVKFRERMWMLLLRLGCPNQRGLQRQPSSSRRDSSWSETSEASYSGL

Q: Which IC50 does the source give for `COc1cc(CN(C[C@H]2CC[C@H](C(=O)O)CC2)C2CCc3cc(Cl)ccc32)ccc1OCCn1c(=O)ccn(C)c1=O` (stereo partly drawn) [Example 48, trans-4-[((5-Chloro-indan-1-yl)-{3-methoxy-4-[2-(3-methyl-2,6-dioxo-3,6-dihydro-2H-pyrimidin-1-yl)-ethoxy]-benzyl}-amino)-methyl]-cyclohexanecarboxylic acid] here?
A: The IC50 was 409 nM.

Q: `COc1cc(CN(C[C@H]2CC[C@H](C(=O)O)CC2)C(C)c2ccc3c(c2)CCO3)ccc1C1CC1CN1C(=O)CCC1=O` (stereo partly drawn) [Example 49, trans-4-[([1-(2,3-Dihydro-benzofuran-5-yl)-ethyl]-{4-[2-(2,5-dioxo-pyrrolidin-1-ylmethyl)-cyclopropyl]-3-methoxy-benzyl}-amino)-methyl]-cyclohexanecarboxylic acid] was tested. Which IC50 did it give?
A: The IC50 was 746 nM.

Q: `COc1cc(CN(C[C@H]2CC[C@H](C(=O)O)CC2)C2CCc3cc(Cl)ccc32)ccc1CCCN1C(=O)CN(C)C1=O` (stereo partly drawn) [Example 50, trans-4-[((5-Chloro-indan-1-yl)-{3-methoxy-4-[3-(3-methyl-2,5-dioxo-imidazolidin-1-yl)-propyl]-benzyl}-amino)-methyl]-cyclohexanecarboxylic acid] was tested. Which IC50 did it give?
A: Its IC50 is 1240 nM.

Q: `COc1cc(CN(C[C@H]2CC[C@H](C(=O)O)CC2)[C@@H](C)c2ccc(Cl)cc2)ccc1CCCN1C(=O)CN(C)C1=O` [Example 51, trans-4-[([(S)-1-(4-Chloro-phenyl)-ethyl]-{3-methoxy-4-[3-(3-methyl-2,5-dioxo-imidazolidin-1-yl)-propyl]-benzyl}-amino)-methyl]-cyclohexanecarboxylic acid] was tested. Which IC50 did it give?
A: The IC50 was 157 nM.

Q: With `COc1cc(CN(C[C@H]2CC[C@H](C(=O)O)CC2)C2CCc3cc(Cl)ccc32)ccc1OCCN1C(=O)CN(C)C1=O` (stereo partly drawn) [Example 52, trans-4-[((5-Chloro-indan-1-yl)-{3-methoxy-4-[2-(3-methyl-2,5-dioxo-imidazolidin-1-yl)-ethoxy]-benzyl}-amino)-methyl]-cyclohexanecarboxylic acid] as the molecule, how does the IC50 read?
A: Its IC50 is 177 nM.

Q: For `COc1cc(CN(C[C@H]2CC[C@H](C(=O)O)CC2)[C@@H](C)c2ccc(Cl)cc2)ccc1OCCN1C(=O)CN(C)C1=O` [Example 53, trans-4-[([(S)-1-(4-Chloro-phenyl)-ethyl]-{3-methoxy-4-[2-(3-methyl-2,5-dioxo-imidazolidin-1-yl)-ethoxy]-benzyl}-amino)-methyl]-cyclohexanecarboxylic acid], which IC50 is on record?
A: Its IC50 is 789 nM.

Q: Which IC50 does the source give for `Cc1cc(CN(C[C@H]2CC[C@H](C(=O)O)CC2)[C@@H](C)c2ccc(Cl)cc2)ccc1CCCN1C(=O)CCC1=O` [Example 54, trans-4-[([(S)-1-(4-Chloro-phenyl)-ethyl]-{4-[3-(2,5-dioxo-pyrrolidin-1-yl)-propyl]-3-methyl-benzyl}-amino)-methyl]-cyclohexanecarboxylic acid] here?
A: The IC50 was 482 nM.

Q: With `COc1cc(CN(C[C@H]2CC[C@H](C(=O)O)CC2)[C@@H](C)c2ccc(Cl)cc2)ccc1C#CCN1C(=O)CCC1=O` [Example 55, trans-4-[([(S)-1-(4-Chloro-phenyl)-ethyl]-{4-[3-(2,5-dioxo-pyrrolidin-1-yl)-prop-1-ynyl]-3-methoxy-benzyl}-amino)-methyl]-cyclohexanecarboxylic acid] as the molecule, how does the IC50 read?
A: The IC50 was 6600 nM.

Q: `COc1cc(CN(C[C@H]2CC[C@H](C(=O)O)CC2)[C@@H](C)c2ccc(Cl)cc2)ccc1CCCN1C(=O)CCC1=O` [Example 56, trans-4-[([(S)-1-(4-Chloro-phenyl)-ethyl]-{4-[3-(2,5-dioxo-pyrrolidin-1-yl)-propyl]-3-methoxy-benzyl}-amino)-methyl]-cyclohexanecarboxylic acid] was tested. Which IC50 did it give?
A: Its IC50 is 215 nM.

Q: Which IC50 does the source give for `Cc1cc(CN(C[C@H]2CC[C@H](C(=O)O)CC2)C2CCc3cc(Cl)ccc32)ccc1OCCN1C(=O)CN(C)C1=O` (stereo partly drawn) [Example 57, trans-4-[((5-Chloro-indan-1-yl)-{3-methyl-4-[2-(3-methyl-2,5-dioxo-imidazolidin-1-yl)-ethoxy]-benzyl}-amino)-methyl]-cyclohexanecarboxylic acid] here?
A: The IC50 was 200 nM.

Q: For `Cc1cc(CN(C[C@H]2CC[C@H](C(=O)O)CC2)[C@@H](C)c2ccc(Cl)cc2)ccc1OCCn1c(=O)ccn(C)c1=O` [Example 58, trans-4-[([(S)-1-(4-Chloro-phenyl)-ethyl]-{3-methyl-4-[2-(3-methyl-2,6-dioxo-3,6-dihydro-2H-pyrimidin-1-yl)-ethoxy]-benzyl}-amino)-methyl]-cyclohexanecarboxylic acid], which IC50 is on record?
A: The IC50 was 169 nM.

Q: `COc1cc(CN(C[C@H]2CC[C@H](C(=O)O)CC2)C(C)c2ccc3c(c2)CCO3)ccc1OCCn1c(=O)ccn(C)c1=O` (stereo partly drawn) [Example 59, trans-4-[([1-(2,3-Dihydro-benzofuran-5-yl)-ethyl]-{3-methoxy-4-[2-(3-methyl-2,6-dioxo-3,6-dihydro-2H-pyrimidin-1-yl)-ethoxy]-benzyl}-amino)-methyl]-cyclohexanecarboxylic acid] was tested. Which IC50 did it give?
A: The IC50 was 195 nM.

Q: How did the IC50 turn out when `Cc1cc(CN(C[C@H]2CC[C@H](C(=O)O)CC2)C(C)c2ccc3c(c2)CCO3)ccc1OCCn1c(=O)ccn(C)c1=O` (stereo partly drawn) [Example 60, trans-4-[([1-(2,3-Dihydro-benzofuran-5-yl)-ethyl]-{3-methyl-4-[2-(3-methyl-2,6-dioxo-3,6-dihydro-2H-pyrimidin-1-yl)-ethoxy]-benzyl}-amino)-methyl]-cyclohexanecarboxylic acid] was run?
A: The IC50 was 345 nM.

Q: `Cc1cc(CN(C[C@H]2CC[C@H](C(=O)O)CC2)C(C)c2ccc(C#N)cc2)ccc1OCCN1C(=O)CCC1=O` (stereo partly drawn) [Example 61, trans-4-[([1-(4-Cyano-phenyl)-ethyl]-{4-[2-(2,5-dioxo-pyrrolidin-1-yl)-ethoxy]-3-methyl-benzyl}-amino)-methyl]-cyclohexanecarboxylic acid] was tested. Which IC50 did it give?
A: Its IC50 is 102 nM.

Q: With `COc1cc(CN(C[C@H]2CC[C@H](C(=O)O)CC2)C(C)c2ccc(C#N)cc2)ccc1OCCn1c(=O)ccn(C)c1=O` (stereo partly drawn) [Example 62, trans-4-[([1-(4-Cyano-phenyl)-ethyl]-{3-methoxy-4-[2-(3-methyl-2,6-dioxo-3,6-dihydro-2H-pyrimidin-1-yl)-ethoxy]-benzyl}-amino)-methyl]-cyclohexanecarboxylic acid] as the molecule, how does the IC50 read?
A: Its IC50 is 200 nM.

Q: Which IC50 does the source give for `CCC(c1ccc(Cl)cc1)N(Cc1ccc(OCCN2C(=O)CCC2=O)c(OC)c1)C[C@H]1CC[C@H](C(=O)O)CC1` (stereo partly drawn) [Example 63, trans-4-[([1-(4-Chloro-phenyl)-propyl]-{4-[2-(2,5-dioxo-pyrrolidin-1-yl)-ethoxy]-3-methoxy-benzyl}-amino)-methyl]-cyclohexanecarboxylic acid] here?
A: The IC50 was 62 nM.

Q: How did the IC50 turn out when `CCC(c1ccc(Cl)cc1)N(Cc1ccc(OCCn2c(=O)ccn(C)c2=O)c(C)c1)C[C@H]1CC[C@H](C(=O)O)CC1` (stereo partly drawn) [Example 64, trans-4-[([1-(4-Chloro-phenyl)-propyl]-{3-methyl-4-[2-(3-methyl-2,6-dioxo-3,6-dihydro-2H-pyrimidin-1-yl)-ethoxy]-benzyl}-amino)-methyl]-cyclohexanecarboxylic acid] was run?
A: Its IC50 is 487 nM.

Q: For `CCC(c1ccc(Cl)cc1)N(Cc1ccc(OCCN2C(=O)CCC2=O)c(C)c1)C[C@H]1CC[C@H](C(=O)O)CC1` (stereo partly drawn) [Example 65, trans-4-[([1-(4-Chloro-phenyl)-propyl]-{4-[2-(2,5-dioxo-pyrrolidin-1-yl)-ethoxy]-3-methyl-benzyl}-amino)-methyl]-cyclohexanecarboxylic acid], which IC50 is on record?
A: Its IC50 is 121 nM.

Q: How did the IC50 turn out when `CCC(c1ccc2c(c1)CCO2)N(Cc1ccc(CCCN2C(=O)CCC2=O)c(OC)c1)C[C@H]1CC[C@H](C(=O)O)CC1` (stereo partly drawn) [Example 66, trans-4-[([1-(2,3-Dihydro-benzofuran-5-yl)-propyl]-{4-[3-(2,5-dioxo-pyrrolidin-1-yl)-propyl]-3-methoxy-benzyl}-amino)-methyl]-cyclohexanecarboxylic acid] was run?
A: Its IC50 is 85 nM.

Q: How did the IC50 turn out when `CCC(c1ccc(Cl)cc1)N(Cc1ccc(OCCN2C(=O)CN(C)C2=O)c(OC)c1)C[C@H]1CC[C@H](C(=O)O)CC1` (stereo partly drawn) [Example 67, trans-4-[([1-(4-Chloro-phenyl)-propyl]-{3-methoxy-4-[2-(3-methyl-2,5-dioxo-imidazolidin-1-yl)-ethoxy]-benzyl}-amino)-methyl]-cyclohexanecarboxylic acid] was run?
A: Its IC50 is 77 nM.

Q: Which IC50 does the source give for `CCC(c1ccc(Cl)cc1)N(Cc1ccc(OCCn2c(=O)ccn(C)c2=O)c(OC)c1)C[C@H]1CC[C@H](C(=O)O)CC1` (stereo partly drawn) [Example 68, trans-4-[([1-(4-Chloro-phenyl)-propyl]-{3-methoxy-4-[2-(3-methyl-2,6-dioxo-3,6-dihydro-2H-pyrimidin-1-yl)-ethoxy]-benzyl}-amino)-methyl]-cyclohexanecarboxylic acid] here?
A: The IC50 was 143 nM.

Q: `CCC(c1ccc2c(c1)CCO2)N(Cc1ccc(OCCN2C(=O)CCC2=O)c(C)c1)C[C@H]1CC[C@H](C(=O)O)CC1` (stereo partly drawn) [Example 69, trans-4-[([1-(2,3-Dihydro-benzofuran-5-yl)-propyl]-{4-[2-(2,5-dioxo-pyrrolidin-1-yl)-ethoxy]-3-methyl-benzyl}-amino)-methyl]-cyclohexanecarboxylic acid] was tested. Which IC50 did it give?
A: Its IC50 is 56 nM.

Q: For `CCC(c1ccc(Cl)cc1)N(Cc1ccc(OCCN2C(=O)CN(C)C2=O)c(C)c1)C[C@H]1CC[C@H](C(=O)O)CC1` (stereo partly drawn) [Example 70, trans-4-[([1-(4-Chloro-phenyl)-propyl]-{3-methyl-4-[2-(3-methyl-2,5-dioxo-imidazolidin-1-yl)-ethoxy]-benzyl}-amino)-methyl]-cyclohexanecarboxylic acid], which IC50 is on record?
A: The IC50 was 180 nM.
